“Also recorded” adds a separate entry of the source. Where two headings read alike, the source gives them in different places.
How the values were obtained:
[1] = molecular target: Nsp13; conditions: cited from earlier work
[2] = molecular target: T1, SARS-CoV-2 Nsp13 (Severe acute respiratory syndrome coronavirus 2, UniProt P0DTD1); experiment: biochemical; conditions: for inhibition at 50 µM: read-out: inhibition of helicase activity
T1 construct: its nonstructural protein 13 (Nsp13) remains a clinically untapped target; His6-Zb-TEV (N, cleaved yes); host or cells: E. coli BL21 (DE3)

[3] = molecular target: T1, SARS-CoV-2 Nsp13; format: binding; conditions: duplex-FL 100 nM, Nsp13 1 μM
[4] = test system: Vero E6, Vero ACE2-TMPRSS2 and A549 ACE2 cells; conditions: t = 22 hr
[5] = molecular target: T1, SARS-CoV-2 Nsp13; format: biochemical
[6] = molecular target: T1, SARS-CoV-2 Nsp13; format: biochemical; remark: listed apart in the source
[7] = test system: SARS-CoV-2; set-up: method as in PMID 35456026; conditions: micromolar concentrations, CFTR-expressing cells; cited from earlier work
[8] = molecular target: T2, Hepatitis C Virus (HCV) RNA helicase NS3 (Hepatitis C virus genotype 1b, UniProt Q9WMX2); format: biochemical
T2 construct: A truncated form of the Hepatitis C NS3 helicase protein; His-SUMO (N, cleaved yes); made in house; host or cells: E. coli BL21 (DE3) per the methods text

[9] = test system: Tte UvrD helicase; format: biochemical; conditions: 3.02 nM UvrD, 1 mM ATP, 65 °C, increasing concentrations
[10] = test system: Chinese hamster ovary (CHO) cells expressing CFTR or colon carcinoma cells; conditions: cited from earlier work
[11] = test system: duplex-FL (labeled duplex DNA); format: binding; conditions: duplex-FL 100 nM, 10% DMSO, no protein
[12] = molecular target: T1, SARS-CoV-2 Nsp13; experiment: biochemical; conditions: for first-round screen, inhibition of Nsp13 ATPase activity (considered active): no detergent, t = 5 min, compound equimolar to ATP

T2 sequence (Q9WMX2 1193-1657): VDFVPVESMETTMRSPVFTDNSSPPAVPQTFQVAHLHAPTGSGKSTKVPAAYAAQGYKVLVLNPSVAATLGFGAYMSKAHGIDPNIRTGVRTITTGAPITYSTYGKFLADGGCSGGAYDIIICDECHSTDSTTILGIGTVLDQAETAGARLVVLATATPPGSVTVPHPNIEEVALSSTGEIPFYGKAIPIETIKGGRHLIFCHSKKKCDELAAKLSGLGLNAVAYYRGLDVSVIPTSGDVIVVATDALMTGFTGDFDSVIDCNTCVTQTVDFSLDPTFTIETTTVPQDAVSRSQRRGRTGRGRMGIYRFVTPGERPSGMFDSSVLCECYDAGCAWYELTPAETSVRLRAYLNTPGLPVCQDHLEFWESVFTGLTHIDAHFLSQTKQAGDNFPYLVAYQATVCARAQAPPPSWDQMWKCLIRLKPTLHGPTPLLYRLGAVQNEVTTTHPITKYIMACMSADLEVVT

## O=C1O[C@H]2[C@@H]3OC(=O)c4cc(O)c(O)c(O)c4-c4c(O)c(O)c5oc(=O)c6c(c(O)c(O)c7oc(=O)c4c5c76)-c4c(cc(O)c(O)c4O)C(=O)OC[C@H]3OC(O)[C@@H]2OC(=O)c2cc(O)c(O)c(O)c2-c2c1cc(O)c(O)c2O (mixture of isomers) [punicalagin]
[1]
  Kd: ~0.02 µM

## O=C(NCc1ccc(Cn2cc(Cl)cn2)cc1)c1nc(-c2ccc(C(F)(F)F)cc2)no1 [Analog 1]
[2]
  IC50: 131 ± 53 µM
  inhibition at 50 µM: > 25%
[2]; 3.12 nM Nsp13, 0.01% Tween-20
  fold higher helicase IC50 than IOWH-032: > 10 fold

## Cc1ccc(-c2cc(C(=O)NCc3ccc(Oc4ccccc4)cc3)no2)cc1C [Analog 2]
[3]
  displacement of duplex-FL probe: no displacement of probe
[2]; 50 μM analog, 3.12 nM Nsp13, 0.01% Tween-20
  inhibition of helicase activity: no inhibition
[4]; up to 20 µM
  toxicity against infection cell lines: did not show toxicity

## Cc1ccc(COc2c(Br)cc(CNc3ccc(Oc4ccccc4)cc3)cc2Br)cc1 [Analog 5]
[2]
  inhibition at 50 µM: < 25%

## O=C(Cn1cccc1-c1nc(-c2ccc(F)c(Br)c2)no1)NCc1ccc(F)cc1 [Analog 6]
[2]
  inhibition at 50 µM: < 25%

## O=C(NCc1ccc(Oc2ccccc2)cc1)c1nc(-c2cc(Br)c(O)c(Br)c2)no1 [IOWH-032]
[5]
  mode of ATPase inhibition with respect to ATP: uncompetitive
[6]
  mode of helicase inhibition with respect to nucleic acid substrate: mixed inhibition
[4]; 4 μM, across all mammalian cell lines tested
  reduction in cell viability: ~50%
[7]
  reduction of SARS-CoV-2 viral loads compared to untreated cells: > 2 log10
[8]; 250 nM NS3, 250 μM ATP
  concentration above which NS3 ATPase activity decreases: exceed 100 µM
[8]; mid-micromolar concentrations of compound
  sensitivity of NS3 ATPase activity: nearly insensitive
[9]
  effect on UvrD ATPase activity (ATP consumption): is not affected; also recorded: still demonstrated ATPase activity
[10]
  toxicity: not toxic
[11]
  interaction with duplex-FL probe alone: does not interact with probe alone; also recorded: no direct interaction

## C=CCn1c(CSc2ccccc2[N+](=O)[O-])n[nH]c1=S [SSYA10-001]
[2]
  inhibition of helicase activity: inhibited

## C[C@H](NC(=O)Cc1cc(F)cc(F)c1)C(=O)N[C@@H]1C(=O)N(C)c2ccccc2-c2ccccc21 [dibenzazepine]
[12]; Tween-20, up to high micromolar concentrations
  ATPase inhibition on titration in the presence of detergent: no inhibition
[12]
  first-round screen, inhibition of Nsp13 ATPase activity (considered active): active

## CNC(=O)c1cc(COc2nnc(Nc3ccc(Cl)cc3)c3ccoc23)ccn1 [telatinib]
[2]
  IC50: 20.4 ± 1.5 µM
[12]; 25 nM Nsp13, 0.01% Tween-20, read-out: ATPase inhibition IC50
  IC50: ~114 µM
[12]
  first-round screen, inhibition of Nsp13 ATPase activity (considered active): active

— paper PMC11267572, “A Repurposed Drug Interferes with Nucleic Acid to Inhibit the Dual Activities of Coronavirus Nsp13” (ACS Chemical Biology, 2024)
